These results are taken from US8188292B2, “Insecticidal N-substituted (heteroaryl)alkyl sulfilimines” (Dow AgroSciences, LLC, priority 2006, dated 2012).

Molecules are shown by their SMILES.

Assay [1] deals with cotton aphid (Aphis gossypii). As to the kind of experiment: Insecticidal test for cotton aphid in foliar spray assay. In kind it is in vivo. Also noted: key to CA 50: % control at 50 ppm against cotton aphid in foliar spray tests: A: 90-100; B: 80-89; C: 70-79; D: 60-69; E: 50-59; F: Less than 50; G: Inactive; H: Not tested. Particulars: foliar spray on squash cotyledons, 3 days, Corrected % Control (Abbott); for pest or weed control at 200 ppm / pest or weed control at 50 ppm: Aphis gossypii, 72 h; for pest or weed control at 200 ppm: read-out: CA 200: % control at 200 ppm against cotton aphid in foliar spray tests; for pest or weed control at 50 ppm: read-out: CA 50: % control at 50 ppm against cotton aphid in foliar spray tests. The protocol: (§1) The compounds identified in the foregoing examples were tested against cotton aphid and green peach aphid using procedures described hereinafter. Insecticidal Test for Cotton Aphid (Aphis Gossypii) in Foliar Spray Assay Squash with fully expanded cotyledon leaves were trimmed to one cotyledon per plant and infested with cotton aphid (wingless adult and nymph) 1 day prior to chemical application. Each plant was examined before chemical application to ensure proper infestation (ca. 30-70 aphids per plant). Compounds (2 mg) were dissolved in 2 ml of acetone:methanol (1:1) solvent, forming stock solutions of 1000 ppm. The stock solutions were diluted 5× with 0.025% Tween 20 in H2O to obtain a solution at 200 ppm. Lower concentrations (50, 12.5 and 3.13 ppm) were prepared by making sequential 4× dilutions from the 200 ppm solution with a diluent consisting 80 parts of 0.025% Tween 20 in H2O and 20 parts of acetone:methanol (1:1). A hand-held Devilbiss sprayer was used to apply the spray solutions until runoff to both sides of the squash cotyledon leaves. Four plants (4 replications) were used for each concentration of each compound. Reference plants (solvent check) were sprayed with the diluent only. Treated plants were held in a holding room for 3 days at approximately 23° C. and 40% RH before the number of live aphids on each plant was recorded. Insecticidal activity was measured by Corrected % Control using Abbott's correction formula and presented in Table 1: Corrected % Control=100*(X−Y)/X • where X=No. of live aphids on solvent check plants • Y=No. of live aphids on treated plants Insecticidal Test for Green Peach Aphid (Myzus Persicae) in Foliar Spray Assay

Assay [2] relates to green peach aphid (Myzus persicae). The assay can be described thus: Insecticidal test for green peach aphid in foliar spray assay. The settings on record: foliar spray on cabbage seedlings, 3 days, Corrected % Control (Abbott); for pest or weed control at 200 ppm / pest or weed control at 50 ppm: Myzus persicae, 72 h; for pest or weed control at 200 ppm: read-out: GPA 200: % control at 200 ppm against green peach aphid in foliar spray tests; for pest or weed control at 50 ppm: read-out: GPA 50: % control at 50 ppm against green peach aphid in foliar spray tests. In kind it is in vivo. Also noted: key to GPA 50: % control at 50 ppm against green peach aphid in foliar spray tests / GPA 200: % control at 200 ppm against green peach aphid in foliar spray tests: A: 90-100; B: 80-89; C: 70-79; D: 60-69; E: 50-59; F: Less than 50; G: Inactive; H: Not tested. On the procedure: as §1, with “hereinafter.” for “hereinafter. Insecticidal Test for Cotton Aphid (Aphis Gossypii) in Foliar Spray Assay”, “Assay Cabbage seedlings grown in 3-inch pots, with 2-3 small (3-5 cm) true leaves, were used as test substrate. The seedlings were infested with 20-50 green peach aphids (wingless adult and nymph) 2-3 days prior to chemical application. Four seedlings were used for each treatment. Compounds (2 mg) were dissolved in 2 ml of acetone:methanol (1:1) solvent, forming stock solutions of 1000 ppm. The stock solutions were diluted 5× with 0.025% Tween 20 in H2O to obtain a solution at 200 ppm. Lower concentrations (50, 12.5 and 3.13 ppm) were prepared by making sequential 4× dilutions from the 200 ppm solution with a diluent consisting 80 parts of 0.025% Tween 20 in H2O and 20 parts of acetone: methanol (1:1). A hand-held Devilbiss sprayer was used for spraying a solution to both sides of cabbage leaves until runoff. Reference plants (solvent check) were sprayed with the diluent only. Treated plants were held in a holding room for three days at approximately 23° C. and 40% RH prior to grading. Evaluation was conducted by counting the number of live aphids per plant under a microscope. Insecticidal activity was measured by using Abbott's correction formula: Corrected % Control=100*(X−Y)/X • where X=No. of live aphids on solvent check plants • Y=No. of live aphids on treated plants The Corrected % Control values from assays are given in Table 1.” for “Assay”

In the case of `CS(=NC#N)[C@@H]1CCC[C@@H]1c1ccc(Cl)nc1` (relative stereo) [Compound 9, cis-[2-(6-chloropyridin-3-yl)cyclopentyl](methyl)-λ^4-sulfanylidenecyanamide], the “CA 50: % control at 50 ppm against cotton aphid in foliar spray tests” value in assay [1] (50 ppm) is recorded as “G”. The pest or weed control at 200 ppm in assay [1] was in the range of 60 to 69%. In addition, in assay [2], the “GPA 50: % control at 50 ppm against green peach aphid in foliar spray tests” value (“GPA 50: % control at 50 ppm” below) is given as “G” and the pest or weed control at 200 ppm was in the range of 60 to 69%.

With `C/S(Cc1ccc(C(F)(F)F)nc1)=N\C#N` (stereo not drawn) [Compound 1], in assay [1] (50 ppm), the pest or weed control at 50 ppm lay within 60 to 69%. The pest or weed control at 200 ppm in assay [1] lay in the range of 90 to 100%. Moreover, in assay [2], the “GPA 50: % control at 50 ppm” value is “G” and the “GPA 200: % control at 200 ppm against green peach aphid in foliar spray tests” value is recorded as “G”.

Take `CC(c1ccc(C(F)(F)Cl)nc1)/S(C)=N/C#N` (stereo not drawn) [Compound 2, (1-{6-[chloro(difluoro)methyl]pyridin-3-yl}ethyl)(methyl)-λ^4-sulfanylidenecyanamide]: the pest or weed control at 50 ppm in assay [1] (50 ppm) and in assay [2] was 90 to 100% throughout. For the same compound, the pest or weed control at 200 ppm in assay [1] and in assay [2] was 90 to 100% each time.

Turning to `CC(c1ccc(C(Cl)(Cl)Cl)nc1)/S(C)=N/C#N` (stereo not drawn) [Compound 3, {1-[6-(trichloromethyl)pyridin-3-yl]ethyl}(methyl)-λ^4-sulfanylidenecyanamide], the pest or weed control at 50 ppm in assay [1] (50 ppm) and in assay [2] was 90 to 100% each time. In addition, the pest or weed control at 200 ppm in assay [1] and in assay [2] was 90 to 100% each time.

Take `CC(c1cnc(Cl)nc1)/S(C)=N/C#N` (stereo not drawn) [Compound 4, (1E)-[1-(2-chloropyrimidin-5-yl)ethyl](methyl)-λ^4-sulfanylidenecyanamide]: the pest or weed control at 50 ppm in assay [1] (50 ppm) fell in the range of 70 to 79%. Moreover, the pest or weed control at 200 ppm in assay [1] fell in the range of 90 to 100%. For the same compound, in assay [2], the “GPA 50: % control at 50 ppm” value was “G” and the pest or weed control at 200 ppm is less than 50%.

With `C/S(Cc1cnc(C(F)(F)F)s1)=N\C#N` (stereo not drawn) [Compound 5, (1E)-methyl {[2-(trifluoromethyl)-1,3-thiazol-5-yl]methyl}-λ^4-sulfanylidenecyanamide], the pest or weed control at 50 ppm in assay [1] (50 ppm) was in the range of 50 to 59%. Besides, the pest or weed control at 200 ppm in assay [1] was 90 to 100%. In assay [2], the “GPA 50: % control at 50 ppm” value is given as “G” and the “GPA 200: % control at 200 ppm against green peach aphid in foliar spray tests” value is recorded as “G”.

As to `N#C/N=S1/CCC(c2ccc(C(F)(F)F)nc2)C1` (stereo not drawn) [Compound 6, 3-[6-(trifluoromethyl)pyridin-3-yl]tetrahydro-1H-1λ^4-thien-1-ylidenecyanamide], the figures for the pest or weed control at 50 ppm in assay [1] (50 ppm) and in assay [2] were 90 to 100% and 50 to 59%, respectively. In addition, the results for the pest or weed control at 200 ppm in assay [1] and in assay [2] were 90 to 100% and 70 to 79%, respectively.

Regarding `C/S(Cc1cnc(Cl)c(F)c1)=N\C#N` (stereo not drawn) [Compound 7, [(5-fluoro-6-chloropyridin-3-yl)methyl](methyl)-λ^4-sulfanylidenecyanamide], the pest or weed control at 50 ppm fell in the range of 90 to 100% in assay [1] (50 ppm) and 60 to 69% in assay [2]. Besides, the results for the pest or weed control at 200 ppm in assay [1] and in assay [2] were 90 to 100% and 70 to 79%, respectively.

Turning to `C/S(Cc1ccc(C(C)(F)F)nc1)=N\C#N` (stereo not drawn) [Compound 8], the values for the pest or weed control at 50 ppm in assay [1] (50 ppm) and in assay [2] were 90 to 100% and 60 to 69%, respectively. Also, the pest or weed control at 200 ppm in assay [1] and in assay [2] was 90 to 100% each time.
